Measured values taken from US20250205155A1, “FORMULATIONS COMPRISING MELPHALAN FLUFENAMIDE AND CYCLODEXTRIN” (Oncopeptides Innovation AB, priority 2022, published 2025).
Where “and” joins values, the source holds several entries; their conditions need not be identical. Equal entries are not always repeated. Structures can show the parent of a compound that is named as a salt. Where two headings read alike, the source gives them in different places.

Legend:
[1] = Rate of dissolution of lyophilised Ex 1-excipient mixtures in 5% glucose solution, 15 seconds (HPLC); type: physicochemical; conditions: solution containing γCD
Experimental: (§1) A stock solution of each excipient was prepared in water (10 mg/mL). An aliquot of 400 μL (4 mg) of each stock solution was then transferred to a separate transparent 4 mL vial. The vials containing the stock solutions were then cooled and lyophilized using a Christ Alpha 2-4 LSC Plus instrument.
(§2) The mixtures were cooled and lyophilized overnight.
A 5% glucose solution (w/v in water) containing 0.08 mg/mL 3-methoxybenzoic as an internal standard was added to each vial containing a lyophilized Ex 1-excipient mixture. The vials were then mixed by shaking for 15 seconds. Approximately half of the solution was then transferred to a Whatman® Mini-UniPrep© syringeless filter and filtered according to the manufacturer's instructions. The filtrate was immediately transferred to a glass vial to prevent further dissolution.
HPLC analysis of each sample was performed using the same method as described in Example 1.

[2] = Ex 1 lyophilised with HPγCD: reconstitution and stability at infusion concentration; type: physicochemical; conditions: for reconstitution concentration: lyophilised with HPγCD (1:67 w/w), 0.9% saline, fully dissolved
Experimental: The weight ratio (w/w) of melphalan flufenamide (free base):hydroxypropyl-γ-cyclodextrin was 1:67. The mixture was stirred for 30 min at room temperature before being lyophilized overnight. A white, fluffy lyo-cake was formed. The lyophilized material was kept refrigerated for 5 months. 0.9% saline (9000 μL) was added to the lyo-cake and the mixture was vortexed for 1 min. The material was fully dissolved to make a 3.0 mg/mL solution. […] The reconstituted solution was diluted to 0.10 mg/mL in 0.9% saline. […] The stability of the approved drug product […] at 0.10 mg/mL in 0.9% saline after 17 hours at room temperature is approximately 56%.

[3] = Stability of lyophilised Ex 1-excipient mixtures in 5% glucose solution (HPLC); type: physicochemical; conditions: 25° C. to 30° C. for 22 hours
Experimental: The following excipients were used: trehalose dihydrate, sucrose, polysorbate 80, α-cyclodextrin, β-cyclodextrin, propylene glycol, 2-hydroxypropyl-β-cyclodextrin, and γCD.
as §1, §2
1 mL of a 5% glucose solution (w/v in water) containing 0.08 mg/mL 3-methoxybenzoic as an internal standard was added to each vial containing a lyophilized Ex 1-excipient mixture. The vials were then mixed by shaking for 15 seconds, and then shaken occasionally for 5 minutes. The solutions were transferred to Whatman® Mini-UniPrep® syringeless filters and filtered according to the manufacturer's instructions. The filtrate was transferred to a glass vial to prevent further dissolution. These filtrates represent the starting concentrations of melphalan flufenamide for each solution (i.e. the to samples). The to samples were analysed by HPLC as described below and then stored at 25° C. to 30° C. for 22 hours. […]

[4] = Solubility of Ex 1 in aqueous solution in the absence of an excipient; conditions: aqueous solution without excipient, water
[5] = Stability of Ex 1 / Ex 2 propylene glycol liquid formulations diluted in γCD saline or glucose solution; type: physicochemical
Experimental: Stock solutions containing 16 mg/mLγCD in […].
The samples were mixed by vortex for 10 seconds and then filtered through a 0.45 μm PTFE filter. The filtrates were analysed by HPLC immediately after sample preparation (i.e. at t0), and then after 2 hours, 5 hours, 7 hours or 18 hours of storage at RT (approximately 23° C.).

[6] = Stability of melphalan flufenamide drug product in γCD 5% glucose solutions at RT; type: physicochemical
Experimental: A stock solution of 23 mg/mL γCD 5% glucose solution (w/v in water) was used to prepare working solutions containing 1 mg, 5 mg, 10 mg, 15 mg, 18 mg, 20 mg or 23 mg/mL γCD.
Approximately 50 mg of the melphalan flufenamide drug product (containing approximately 1 mg of melphalan flufenamide) was transferred to […] different 4 mL clear glass vials, followed by addition of 1 mL of a γCD working solution. The solutions were stirred for 5 minutes. The solutions were then filtered through a 0.45 μm PTFE filter. The filtrates were analysed by HPLC immediately after sample preparation (i.e. at t0), and then after 2 hours, 5 hours, 7 hours or 18 hours of storage at RT (approximately 23° C.).
HPLC analysis was performed using an Agilent 1260 series HPLC. Analyses were performed using a Poroshell column 3×50 mm EC-C18 column with a gradient of 5% to 97% acetonitrile, 0.1% formic acid over 3 min and a flow of 1 mL/min. An injection volume 0.2 μL was used. The melphalan flufenamide concentration in each sample was determined by HPLC analysis using a calibration curve for melphalan flufenamide.

[7] = type: physicochemical
Experimental: The samples were analysed after 0 h and the samples were stored at room temperature or in the fridge and analysed after 18 h. The remaining API (i.e. the remaining melphalan flufenamide) was reported relative to the area under the curve at t=0 h.
(§3) Analytical HPLC was carried out on an Agilent Series 1100 system using a Kinetex XB C18 (2.6 μm, 3.0×50 mm) column with 0.1% TFA in MiliQ H2O/MeCN as mobile phase (flow 1 mL/min). 5-97% MeCN in 3 minutes.

[8] = Stability of melphalan flufenamide infusion solution with and without γCD at 5° C.; type: physicochemical; conditions: for decrease of melphalan flufenamide content: infusion solution not comprising γCD
Experimental: A control infusion solution containing no γCD was prepared in accordance with the following method, which is in line with the protocol set out in the U.S. Prescribing Information (USPI) for PEPAXTO® dated February 2021:
An infusion solution containing γCD was prepared according to steps 1 to 5 above, except that step 2 included a step of adding 320 mg of γCD into each vial (i.e. 1:16 ratio w/w of melphalan flufenamide to γCD) followed by mixing the powders by vortex. Steps 3 to 5 were then carried out as set out above.
Immediately after preparation of each infusion solution, 4 mL was withdrawn from the infusion bag and the melphalan flufenamide content was determined by HPLC analysis. These samples represent each infusion solution at the start of the stability study (i.e. the to samples). Each infusion bag was then stored at 5° C. […] The melphalan flufenamide content of each sample was determined by HPLC analysis.
The melphalan flufenamide content of each sample of infusion solution was determined by HPLC analysis using the method described in Example 5.

[9] = Ex 1 lyophilised with HPγCD in different ratios: reconstitution and stability; type: physicochemical; conditions: HPγCD weight ratio 1:16, 1:20, 1:24 or 1:28, 20 hours at room temperature
Experimental: A 10 wt % solution of hydroxypropyl-γ-cyclodextrin (1750 mg) in t-BuOH/water 1:1 (15.75 g) and a 1:1 tBuOH/water solution were prepared. […] The solutions were lyophilized for 4 d.
The lyophilized material of entries 1 to 4 of Table 10 was reconstituted with 0.9% saline to make 0.5 mg/mL, 1.0 mg/mL and 2.0 mg/mL reconstituted solutions. The lyophilized material fully dissolved in each reconstituted solution. Portions of the 0.5 mg/mL, 1.0 mg/mL and 2.0 mg/mL reconstituted solutions were then diluted to 0.10 mg/mL in 0.9% saline (infusion concentration) and these 0.10 mg/mL solutions, and also a samples of the 0.5 mg/mL reconstituted solutions, were analyzed by HPLC after 0, 4 and 20 hours at room temperature.

[10] = Stability of Ex 2 in glucose or saline with and without 16 mg/mL HPγCD at room temperature; type: physicochemical; conditions: 5 hours at room temperature
Experimental: Stock solutions of 16 mg/mL hydroxypropyl-γ-cyclodextrin in 5% glucose and in 0.9% saline were prepared. 20 mg/mL (free base) solution of the compound of Example 2 in propylene glycol was prepared.
To a 2 mL clear vial was added the amounts of each stock solution according to the Table 4 below.
The samples were stored at room temperature and analysed after 0, 2, 5 and 23 h on HPLC. The degradation of the compound was reported relative to the area under the curve at time=0 h. The percentage figure in Table 5 below represents the proportion of remaining compound of Ex 2.
as §3

Q: Which results are given for CCOC(=O)[C@H](Cc1ccc(F)cc1)NC(=O)[C@@H](N)Cc1ccc(N(CCCl)CCCl)cc1 [Ex 1, melphalan flufenamide hydrochloride]?
A: Ex 1 dissolved within the first 15 seconds of mixing [1]: 68%; Ex 1 remaining ([2]; lyophilised with HPγCD 1:67 w/w, reconstituted 3.0 mg/mL, diluted to 0.10 mg/mL in 0.9% saline, 17 hours at room temperature): 91%; reconstitution concentration ([2]; hydrochloride): 3.0 mg/mL and 3 mg/mL; decrease of melphalan flufenamide content relative to t0 ([3]; solution with γCD): 31%; Ex 1 remaining in solution ([3]; γCD 5% glucose solution, γCD:melphalan flufenamide about 4:1 w/w): 69%; solubility [4]: < 400 µg/mL

Q: For [2H]C([2H])([2H])C([2H])([2H])OC(=O)[C@H](Cc1ccc(F)cc1)NC(=O)[C@@H](N)Cc1ccc(N(CCCl)CCCl)cc1 [Ex 2, (^2H5)ethyl (2S)-2-[(2S)-2-amino-3-{4-[bis(2-chloroethyl)amino]phenyl}propanamido]-3-(4-fluorophenyl)propanoate hydrochloride], which “stability of Ex 2 in control solutions” value ([5]; 6% propylene glycol and saline only or 6% propylene glycol and 5% glucose only) is on record?
A: poor stability

Q: What about the “stability of Ex 2 in the presence of γCD” value ([5]; saline or 5% glucose solution, γCD about 16:1, 30:1, 80:1 w/w, hydrochloride) of the same compound?
A: improved the stability

Q: With CCOC(=O)[C@H](Cc1ccc(F)cc1)NC(=O)[C@@H](N)Cc1ccc(N(CCCl)CCCl)cc1 [melphalan flufenamide, ethyl (2S)-2-[[(2S)-2-amino-3-[4-[bis(2-chloroethyl)amino]phenyl]propanoyl]amino]-3-(4-fluorophenyl)propanoate] as the compound, how does the “stabilisation by γCD” value ([6]; 1 to 23 equivalents of γCD (w/w), up to 18 hours) read?
A: stabilised

Q: What about the “stability by γCD ratio” value ([6]; 15, 18 and 23 equivalents of γCD (w/w)) of the same compound?
A: most stable

Q: And the “melphalan flufenamide content retained” value ([7]; 0.2 mg/mL, HPγCD weight ratio 1:20, 1:24, 1:28, 1:32, 1:36 or 1:40, 18 hours at room temperature)?
A: over 78%

Q: What about the “melphalan flufenamide content retained” value ([7]; 0.2 mg/mL, HPγCD weight ratio 1:20 to 1:40, 18 hours in a fridge) of the same compound?
A: over 93%

Q: And the “melphalan flufenamide content retained” value ([7]; aqueous solution, HPγCD about 36:1 w/w, 18 hours at room temperature)?
A: 87%

Q: And the “decrease of melphalan flufenamide content relative to t0” value ([8]; control infusion solution without γCD, 43 hours at 5° C.)?
A: approximately 10%

Q: What about the “decrease of melphalan flufenamide content” value ([8]; 24 hours at 5° C.) of the same compound?
A: approximately 7%

Q: What about the “decrease of melphalan flufenamide content” value ([8]; 24 hours at 5° C., listed as melflufen flufenamide) of the same compound?
A: about 5%

Q: And the degradation rate ([8]; saline infusion solution comprising γCD, 5° C.)?
A: about 1 % per 24 hours

Q: What about the “decrease of melflufen flufenamide content” value ([8]; saline infusion solution not comprising γCD, 48 hours at 5° C.) of the same compound?
A: about 8%

Q: What about the “decrease of melflufen flufenamide content” value ([8]; saline infusion solution with γCD, 24 hours at 5° C.) of the same compound?
A: about 1%

Q: And the “decrease of melflufen flufenamide content” value ([8]; saline infusion solution with γCD, 48 hours at 5° C.)?
A: about 2%

Q: What about the “melphalan flufenamide content retained” value ([9]; 0.1 mg/mL) of the same compound?
A: over 80%

Q: What about the “melphalan flufenamide content retained” value ([9]; 0.5 mg/mL) of the same compound?
A: > 90%

Q: What about the reconstitution concentration [2] of the same compound?
A: up to 3.0 mg/mL

Q: And the “average decrease of melflufen flufenamide content” value ([10]; saline infusion solution with hydroxypropyl-γCD)?
A: about 4%

Q: What about the “average decrease of melflufen flufenamide content” value ([10]; saline infusion solution without HPγCD) of the same compound?
A: about 40%
